Like-named read-outs stand apart in the source and are kept apart here.
How the values were obtained:
Amyloid β (1-40) peptide [1] = target: T1, Amyloid β (1-40) peptide (Homo sapiens, UniProt P05067); assay: Inhibitory activity on formation of amyloid from amyloid β protein (thioflavin T method); format: biochemical; conditions: amyloid β (1-40) 15 μmol/L, PBS(−), room temperature, one day; read-out: Aggregation inhibitory activity IC50 A β 1-40
T1 construct: amyloid β (1-40) peptide hydrochloric acid salt; host or cells: chemically synthesised peptide
Experimental: Amyloid β (1-40) peptide hydrochloric acid salt (product of PEPTIDE […], INC.) (15 μmol/L) and a test substance (1.6, 8, or 40 μmol/L) were incubated in PBS(−) at room temperature for one day. Thereafter, the amount of formed amyloid was measured through the thioflavin T method. […] As is clear from table 3, aggregation of amyloid β (1-40) can be prevented by the compound of the present invention.

[2] = target: T2, synthetic amyloid β (1-40) aggregates (Homo sapiens, UniProt P05067); assay: Inhibition of binding of compound 23 to amyloid β protein aggregates; set-up: amyloid β (1-40) peptide hydrochloric acid salt; host or cells: chemically synthesised peptide; conditions: binding of 125I-labeled compound 23 to A β 1-40 aggregates, room temperature, three hours
Experimental: Synthetic A β peptides in a solution form undergo spontaneous aggregation in a test tube, to thereby form aggregates having the same β-sheet structure as that of amyloid aggregates present in a brain suffering from Alzheimer's disease (hereinafter, such a brain is referred to as an “Alzheimer brain”).
After ultrasonication, the mixture was gently stirred at 37° C. for four days, to thereby produce synthetic amyloid β (1-40) aggregates.
Binding test was performed in the following manner. Firstly, PBS (500 μL) and 0.2% BSA/PBS solution (100 μL) were added to test tubes. […] Reaction was initiated by adding a synthetic amyloid β (1-40) aggregates solution (concentration: 500 nmol/L, adjusted by PBS) (200 μL) to each test tube.
These samples were incubated at room temperature for three hours, and each reaction mixture was filtered by means of a cell harvester (M-24R, product of Brandel) by use of a Whatman GF/B filter (product of Whatman). The filter was washed thrice with ice-cooled PBS solution (about 2 mL) containing 0.1-mmol/L ascorbic acid.
Activity values were calculated by means of a GraphPad Prism Ver.

[3] = standard substances of liposolubility; values reported in the literature; cited from earlier work
[4] = target: T3, amyloid β (1-40) aggregates formed in PBS and in MES (Homo sapiens, UniProt P05067); assay: Correlation of β sheet amount in aggregates to binding amount of compound 23; conditions: mixtures of PBS aggregates and MES aggregates (FIG. 4)
T3 construct: amyloid β (1-40) peptide hydrochloric acid salt; host or cells: chemically synthesised peptide
From the text: In order to confirm that binding of compound 23 is promoted in accordance with the β-sheet structure amount, binding amount was compared among amyloid β aggregates having different β-sheet contents.
It has already reported by Wood et al. that amyloid β (1-40) aggregated in an acidic medium assumes large aggregates having a small β-sheet structure content, and that the structure is unchanged even in a neutral pH medium (Wood S. J., J. Mol. Biol. 256(5): 870-877). According to this report, synthetic amyloid β (1-40) aggregates were prepared in PBS in a manner similar to that of Test Example 2, and such aggregates were also prepared in MES (2-morpholinoethansulfonate) buffer in a similar manner.
These samples were further diluted with PBS to 40 μmol/L. Also a PBS aggregates sample and a MES aggregates sample were diluted with PBS to 40 μmol/L respectively.
The β-sheet content of aggregate mixture samples was determined through the thioflavin T method.
The binding amount of compound 23 to an aggregate mixture (aggregates formed in PBS and those formed in MES) was determined in a manner similar to that of Test Example 5 (binding to amyloid).

[5] = target: Whole protein of human Alzheimer lesion origin (temporal cortex) (Homo sapiens, UniProt P05067); assay: Calculation of binding affinity by use of Alzheimer brain; conditions: Alzheimer brain homogenate
Experimental: Whole protein of human Alzheimer lesion origin (temporal cortex), a commercial product of Biochain (US), was employed.
An Alzheimer brain homogenate diluted with PBS was added to each test tube, to thereby initiate reaction.
4.00 (GraphPad Software, Inc.), to thereby calculate binding parameters (Kd, Bmax).

[6] = Distribution in rat body (radioactivity in the brain); format: in vivo, Wistar male rats; conditions: caudal vein
Experimental: Wistar male rats (purchased from Japan SLC, Inc.) were conditioned for seven days, maintaining water and chow (commercial solid chow: F-2, product of Funabashi Farm) ad libitum, and the non-fasting rats were employed in the experiment (8-week-old at experiment).
Each of compound 23, compound 24, and [^125I]-IMPY was dissolved in a solution containing 40 mM ascorbic acid and 0.1% Tween80, to thereby adjust the concentration to 100 μCi/200 μL. Each sample was administered to each rat through the caudal vein under non-anesthetization. […] The brain was cut into the left and right parts, and each part was weighed. The right brain was placed in a vial, and radioactivity was measured by means of a gamma counter. The radioactivity relative to the administration amount was calculated. Specifically, radioactivity of the tissue and that divided by the tissue weight were calculated as % I.D. and % I.D./g-tissue weight, respectively.

[7] = In vitro metabolism rate by use of liver microsomes, mouse; format: in vitro ADME, Male CD1 mouse
Experimental: (§1) Liver microsomes (Pooled human Liver Microsomes, Male CD1 mouse, Male Wistar Rat), which is a commercial product of In Vitro Technologies, were employed.
(§2) Each of compound 23, compound 24, and [^125I]-IMPY was dissolved in Milli Q water, to thereby adjust the concentration to 11 μCi/mL (5 nmol/L).
(§3) To a mixture of 100 mM glucose 6-phosphate and […] NADPH solution, an equal volume of […] magnesium chloride was added. Glucose 6-phosphate dehydrogenase was employed at a final concentration of 10 unit/mL. These components were reconstituted upon use.
(§4) Method: To each of the glass test tubes, […] EDTA/0.33M potassium phosphate buffer (150 μL), Milli Q water (200 μL), 0.005 or 0.5 mg protein/mL microsome suspension (50 μL), and a test substance solution (50 μL) were added. The mixture was preliminarily incubated at 37° C. for two minutes. The above-prepared NADPH-generating system (50 μL) was added, to thereby initiate reaction. At an arbitrary point of time, an equal volume of acetonitrile was added, to thereby terminate the reaction. The reaction mixture (50 μL) was sampled into a glass tube for determining the metabolism amount, and saturated ascorbic acid ethanol solution (25 μL) was added thereto. The sample was developed by means of a reverse phase TLC (Whatman KC18F) with 80% methanol. The TLC was brought into contact with an imaging plate, and radioactivity was detected by means of BAS-1800 (product of Fuji Film Co., Ltd.). The metabolism rate was calculated through analysis by means of GraphPad Prism Ver. 4.00 (GraphPad Software, Inc.).

[8] = In vitro metabolism rate by use of liver microsomes, rat; format: in vitro ADME, Male Wistar Rat
Experimental: as §1, §2, §3, §4

[9] = In vitro metabolism rate by use of liver microsomes, human; format: in vitro ADME
Experimental: as §1, §2, §3, §4

[10] = human, in vivo; cited from earlier work
[11] = animal PET scanner; cited from earlier work
[12] = target: T2, synthetic amyloid β (1-40) aggregates; conditions: for Bonding amount against amyloid β protein aggregate concentration: presence and absence of normal rat brain homogenate
Experimental: A brain tissue was removed from a normal rat, and a 5-fold amount of PBS was added to the tissue (wet state). A homogenate was produced from the mixture by use of a homogenizer. To test tubes, PBS (500 μL, in the presence of homogenate or 600 μL, in the absence of homogenate) was added. A rat brain homogenate (100 μL) was added under the presence condition of homogenate. […] Each (200 μL) of the Aβ aggregates solutions of twice-diluted series was added to each test tube, whereby reaction was initiated.
By subtracting a non-specific binding amount from the total binding amount and dividing the difference by the non-specific binding amount, an SN (Signal/Noise) ratio was calculated. The relationship between the SN ratio and amyloid β protein aggregate concentration was investigated (FIG. 2).

Amyloid β (1-40) peptide [13] = target: T1, Amyloid β (1-40) peptide; assay: Binding of compound 24 to amyloid β (1-40) aggregated in PBS or dissolved in purified water; conditions: for Specific binding radioactivity: amyloid β 50 nmol/L
Experimental: Separately, amyloid β (1-40) peptide HCl salt was dissolved in purified water, to thereby prepare a 100-μmol/L amyloid β (1-40) solution. A CD spectrum of each sample solution (twice diluted) was measured at room temperature (about 25° C.) in a wavelength range of 190 to 250 nm. PBS or purified water was measured as a blank. After measurement, a blank value was subtracted from a CD value of each sample, to thereby correct the base line. From the thus-corrected CD values, secondary structure analysis was performed by means of SELCON3.
Subsequently, binding ability of the compound of the invention to amyloid β (1-40) peptide dissolved in purified water or aggregated in PBS was determined in a manner similar to that employed in Test Example 3. However, a ^125I-labeled compound 24 was employed, and no rat bran homogenate was included. The employed amyloid β concentration was 50 nmol/L at reaction.

[14] = read-out: Inhibitory activity (n = 3) IC50 Mean ± S.D.

T1 sequence (P05067 672-711 limits assumed): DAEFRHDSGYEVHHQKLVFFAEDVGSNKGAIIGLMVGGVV
T2 sequence (P05067 672-711 limits assumed): as above
Chain of Whole protein of human Alzheimer lesion origin (temporal cortex) (P05067 672-713): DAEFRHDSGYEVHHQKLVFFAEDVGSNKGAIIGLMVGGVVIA
T3 sequence (P05067 672-711 limits assumed): as the sequence (P05067 672-711 limits assumed) above

Work on “5-[4-(6-Iodoimidazo[1,2-a]pyridin-2-yl)phenyl]-1,3-oxazole [Example 1]” yielded an IC50 (Amyloid β (1-40) peptide [1]) of 29400 nM and an IC50 [2, 14] of 1.23 ± 0.0842 nM.

In the case of `CC(=O)Nc1ccc(O)cc1` [Acetaminophen], the LogD7.4 [3] is given as 0.51.

For `Oc1ncnc2[nH]ncc12` [Allopurinol], the LogD7.4 [3] is listed as −0.44.

For `c1ccc(-c2ccc(C(c3ccccc3)n3ccnc3)cc2)cc1` (stereo not drawn) [Bifonazole], the LogD7.4 [3] is given as 4.77.

For `CN/C(=N/CCSCc1nc[nH]c1C)NC#N` [Cimetidine], the LogD7.4 [3] is given as 0.35.

For `Clc1cccc(Cl)c1N=C1NCCN1` [Clonidine], the LogD7.4 [3] is listed as 0.62.

Compound `Nc1c(/N=N/c2ccc(-c3ccc(/N=N/c4cc(S(=O)(=O)O)c5ccccc5c4N)cc3)cc2)cc(S(=O)(=O)O)c2ccccc12` [Congo Red, reference compound] has an IC50 [2] greater than 5000 nM.

Work on `Ic1ccc2nc(-c3ccc(-c4cc[nH]n4)cc3)cn2c1` [Example 3, 6-Iodo-2-[4-(1H-3-pyrazolyl)phenyl]imidazo[1,2-a]pyridine] yielded an IC50 (Amyloid β (1-40) peptide [1]) of 22300 nM and an IC50 [2] of 9.72 ± 1.44 nM.

In the case of `[125I]c1ccc2nc(-c3ccc(-c4cnco4)cc3)cn2c1` [Example 23, [^125I]5-[4-(6-Iodoimidazo[1,2-a]pyridin-2-yl)phenyl]-1,3-oxazole], the “Specific binding amount against β-sheet content of aggregate mixture” value [4] is reported as “promoted in accordance with an increase in β-sheet content”, the Bmax [5] is reported as 1.66 pmol/mg protein and the “Radioactivity in the rat brain Mean ± SD” value ([6]; 2 min after administration) is reported as 1.268 ± 0.166 % I.D./g. For the same compound, the “Radioactivity in the rat brain Mean ± SD” value ([6]; 5 min after administration) was 1.124 ± 0.032 % I.D./g, the “Radioactivity in the rat brain Mean ± SD” value ([6]; 15 min after administration) was 0.584 ± 0.077 % I.D./g and the “Radioactivity in the rat brain Mean ± SD” value ([6]; 30 min after administration) was 0.273 ± 0.015 % I.D./g. For the same compound, the “Radioactivity in the rat brain Mean ± SD” value ([6]; 60 min after administration) was 0.139 ± 0.006 % I.D./g, the “Radioactivity in the rat brain Mean ± SD” value ([6]; 120 min after administration) was 0.083 ± 0.002 % I.D./g and the “Rate of metabolism by liver microsomes” value [7] was 0.480 ± 0.139 pmol/min/mg protein. For the same compound, the “Rate of metabolism by liver microsomes” value [8] was 0.632 ± 0.420 pmol/min/mg protein and the “Rate of metabolism by liver microsomes” value [9] was 0.944 ± 0.265 pmol/min/mg protein.

In the case of `CC(=C(C#N)C#N)c1ccc2cc(N(C)CCF)ccc2c1` [FDDNP, reference compound], the IC50 [2, 14] is reported as 1050 ± 48.8 nM.

In the case of `C[C@]12CC[C@H]3[C@@H](CCC4=CC(=O)CC[C@@]43C)[C@@H]1CC[C@@H]2O` [Teststeron], the LogD7.4 [3] is given as 3.29.

In the case of `[11CH3]Nc1ccc(-c2nc3ccc(O)cc3s2)cc1` [^11C-PIB], the “Difference in retention between AD patient groups” value [10] is given as “at most about two-fold” and the “Retention time, PS1/APP mice against normal mice” value [11] is given as “no difference is observed in retention time”.

With `CN(C)c1ccc(-c2cn3cc([123I])ccc3n2)cc1` [^123I-IMPY, [^123I]6-iodo-2-(4′-dimethylamino-)phenyl-imidazo[1,2-a]pyridine, reference compound] the “Bonding amount against amyloid β protein aggregate concentration” value [12] was “increase in bonding amount in response to the amyloid β protein aggregate concentration”.

With `[123I]c1ccc2nc(-c3ccc(-c4cc[nH]n4)cc3)cn2c1` [^123I-labeled product of compound 3, [^123I]6-Iodo-2-[4-(1H-3-pyrazolyl)phenyl]imidazo[1,2-a]pyridine] the “SN (Signal/Noise) ratio” value ([12]; compared with 123I-IMPY, presence and absence of normal rat brain homogenate (FIG. 2)) was “higher SN ratio” and the “Bonding amount against amyloid β protein aggregate concentration” value [12] was “increase in bonding amount in response to the amyloid β protein aggregate concentration”.

For “[^125I]6-Iodo-2-[4-(1H-3-pyrazolyl)phenyl]imidazo[1,2-a]pyridine [Example 24]”, the Specific binding radioactivity (Amyloid β (1-40) peptide [13]; Solution of amyloid β (1-40) dissolved in purified water) was 6300.3 cpm, the Specific binding radioactivity (Amyloid β (1-40) peptide [13]; Suspension of amyloid β (1-40) aggregated in PBS) was 125504.4 cpm and the “Specific binding to aggregates (suspension) relative to dissolved amyloid β (1-40) (solution)” value (Amyloid β (1-40) peptide [13]; ratio suspension in PBS / solution in purified water) was “about 20 times”. The Bmax [5] was 1.59 pmol/mg protein, the Kd ([5]; 125I-labeled test compound 0.5 nmol/L) was 4.05 nM and the “Radioactivity in the rat brain Mean ± SD” value ([6]; 2 min after administration) was 0.760 ± 0.036 % I.D./g. The “Radioactivity in the rat brain Mean ± SD” value ([6]; 5 min after administration) was 0.656 ± 0.026 % I.D./g, the “Radioactivity in the rat brain Mean ± SD” value ([6]; 15 min after administration) was 0.373 ± 0.047 % I.D./g and the “Radioactivity in the rat brain Mean ± SD” value ([6]; 30 min after administration) was 0.176 ± 0.009 % I.D./g. The “Radioactivity in the rat brain Mean ± SD” value ([6]; 60 min after administration) was 0.053 ± 0.003 % I.D./g, the “Radioactivity in the rat brain Mean ± SD” value ([6]; 120 min after administration) was 0.015 ± 0.002 % I.D./g and the “Rate of metabolism by liver microsomes” value [7] was 0.229 ± 0.061 pmol/min/mg protein. For the same compound, the “Rate of metabolism by liver microsomes” value [8] was 0.193 ± 0.058 pmol/min/mg protein and the “Rate of metabolism by liver microsomes” value [9] was 0.140 ± 0.057 pmol/min/mg protein.

Reference: patent US8022075B2, “Diagnostic and remedy for disease caused by amyloid aggregation and/or deposition” (Fujifilm Ri Pharma Co., Ltd., priority 2005, dated 2011)
